# Test results reported in patent US20220031697A1, “Dose and regimen for an hdm2-p53 interaction inhibitor in hematological tumors” (Novartis AG, priority 2017, published 2022).
# Like-named read-outs stand apart in the source and are kept apart here.
# Legend:
# [1] = system: advanced TP53 wild-type (WT) leukemias; format: in vivo, human
# [2] = Clinical PK; format: in vivo, human
# Description: Pharmacokinetic data have been evaluated throughout the course of the clinical study. […] Furthermore, an integrated analysis of all available HDM201 concentrations was conducted using a population approach. The PK of HDM201 was best described by a 1-compartment PK model with a delayed zero- and first-order absorption process, and a linear clearance. Body weight was identified as a statistically significant covariate on apparent central volume of distribution (Vc/F), in which Vc/F increased with increasing body weight.
# (§1) To further support the 45 mg for HDM201, compartmental PK modeling was used to estimate the individual average concentration during cycle 1 for patients with hematological tumors treated at 45 mg on regimen 2C (FIG. 2). For all patients with measured PK, the estimated average drug concentrations during cycle 1 were above the most conservative average tumor stasis concentration of about 41 ng/mL per cycle determined from PKPD modeling of preclinical data (human SJSA-1 xenograft rat model).
# [3] = system: human SJSA-1 (osteosarcoma) xenograft; assay: TGI PK/PD modelling, xenograft rat; format: in vivo; settings: human SJSA-1 xenograft rat
# Description: Line at 120 ng/mL=95% tumor regression from human SJSA-1 xenograft rat. […] Calculation of average dose level (mg/day):
# as §1
# [4] = system: human HSAX2655 (liposarcoma) PDX; assay: TGI PK/PD modelling, PDX rat; format: in vivo
# [5] = Regimen 1A 250 mg, cut-off 15 Jan. 2018
# [6] = Regimen 1A 250 mg, n=10, cut-off 15 Jan. 2018
# [7] = Regimen 1B 120 mg, n=23, cut-off 15 Jan. 2018
# [8] = Regimen 2C 45 mg, n=25, cut-off 15 Jan. 2018
compound,measurement,setting,value
"COc1ncc(-c2nc3c(n2C(C)C)[C@H](c2ccc(Cl)cc2)N(c2cc(Cl)cn(C)c2=O)C3=O)c(OC)n1 [HDM201, (S)-5-(5-Chloro-1-methyl-2-oxo-1,2-dihydro-pyridin-3-yl)-6-(4-chloro-phenyl)-2-(2,4-dimethoxy-pyrimidin-5-yl)-1-isopropyl-5,6-dihydro-1H-pyrrolo[3,4-d]imidazol-4-one]",Count recovery time from C1D1,"[1]; CR patient, 1A 250 mg",48 days
same,Duration of CR/CRi,"[1]; CR patient, 1A 250 mg",50 days
same,Time to CR/CRi,"[1]; CR patient, 1A 250 mg",7 weeks
same,Count recovery time from C1D1,"[1]; CR patient, 1A 400 mg",40 days
same,Duration of CR/CRi,"[1]; CR patient, 1A 400 mg",23 days
same,Time to CR/CRi,"[1]; CR patient, 1A 400 mg",6 weeks
same,Count recovery time from C1D1,"[1]; CR patient, 2C 45 mg",32 days
same,Duration of CR/CRi,"[1]; CR patient, 2C 45 mg",152 days
same,Time to CR/CRi,"[1]; CR patient, 2C 45 mg",5 weeks
same,Duration of CR/CRi,"[1]; CRi patient, 1B 150 mg",51 days
same,Time to CR/CRi,"[1]; CRi patient, 1B 150 mg",11 weeks
same,Duration of CR/CRi,[1]; [5],50 to 125 days
same,Time to CR/CRi,[1]; [5],24 to 50 days
same,CR (patients),[1]; [6],1
same,CRi (patients),[1]; [6],1
same,BOR: CR,[1]; Regimen 1A (n = 15),2 (13) n (%)
same,BOR: CRi,[1]; Regimen 1A (n = 15),0 (0) n (%)
same,ORR (CR + CRi + PR),[1]; Regimen 1A (n = 15),2 (13) n (%)
same,Duration of CR/CRi,"[1]; Regimen 1B 120 mg, DoR censored, cut-off 15 Jan. 2018",1 day (DoR
same,Time to CR/CRi,"[1]; Regimen 1B 120 mg, cut-off 15 Jan. 2018",30 days
same,CR (patients),[1]; [7],1
same,CRi (patients),[1]; [7],0
same,BOR: CR,[1]; Regimen 1B (n = 6),0 (0) n (%)
same,BOR: CRi,[1]; Regimen 1B (n = 6),1 (17) n (%)
same,ORR (CR + CRi + PR),[1]; Regimen 1B (n = 6),1 (17) n (%)
same,Clinical activity,"[1]; Regimen 2A (2 weeks on/2 week off), doses up to 30 mg",without evidence of clinically meaningful activity
same,BOR: CR,[1]; Regimen 2A (n = 7),0 (0) n (%)
same,BOR: CRi,[1]; Regimen 2A (n = 7),0 (0) n (%)
same,ORR (CR + CRi + PR),[1]; Regimen 2A (n = 7),0 (0) n (%)
same,Count recovery time of the patient with CR,[1]; Regimen 2C 45 mg,32 days
same,Overall response rate,"[1]; Regimen 2C 45 mg, 7 patients with post-baseline assessment",57.1%
same,Time to CR/CRi,"[1]; Regimen 2C 45 mg, cut-off 15 Jan. 2018",34 to 49 days
same,CR (patients),[1]; [8],2
same,CRi (patients),[1]; [8],4
same,Duration of CRi,"[1]; Regimen 2C 45 mg, one of three CRi patients",40 days
same,Duration of complete response,"[1]; Regimen 2C 45 mg, one patient",152 days
same,BOR: CR,[1]; Regimen 2C (n = 7),1 (14) n (%)
same,BOR: CRi,[1]; Regimen 2C (n = 7),3 (43) n (%)
same,ORR (CR + CRi + PR),[1]; Regimen 2C (n = 7),4 (57) n (%)
same,Best percentage change in blast percentage in bone marrow (BM) aspirate,"[1]; Regimen 2C, AML patients, FIG. 1",strong efficacy
same,BOR: CR,[1]; Total (N = 35),3 (9) n (%)
same,BOR: CRi,[1]; Total (N = 35),4 (11) n (%)
same,ORR (CR + CRi + PR),[1]; Total (N = 35),7 (20) n (%)
same,Estimated average drug concentration during cycle 1,"[2]; 45 mg regimen 2C, all patients with measured PK, compartmental PK modeling",> 41 ng/mL
same,Dose proportionality of PK (AUClast and Cmax),"[2]; over the dose range studied, preliminary assessment",approximately dose proportional
same,Concentration for 95% tumor regression,[3],120 ng/mL
same,Average concentration for tumor stasis,[4],19 ng/mL
